Experimental data as given in ChEMBL document CHEMBL1136389, “Structure-activity relationship of a novel class of naphthyl amide KATP channel openers” (Bioorg Med Chem Lett, 2003).

What was measured:
Rattus norvegicus [1] = experiment: In vivo concentration required for the reduction of mean arterial pressure in anesthetized obstructed male rat, administered intravenously at a dose of 50 nM/Kg; type: functional, Artery
[2] = Selectivity ratio for the reduction of mean arterial pressure to that of unstable […] in anesthetized obstructed male rat; type: functional, Artery
Rattus norvegicus [3] = experiment: In vivo concentration required for the inhibition of unstable contraction in anesthetized obstructed male rat, administered intravenously at a dose of 30 nM/Kg; type: functional
Rattus norvegicus [4] = experiment: In vivo concentration required for the 10% reduction of mean arterial pressure in anesthetized obstructed male rat, administered intravenously at a dose of 50 nM/Kg; type: functional, Artery

Structure (SMILES)	ED10 (Rattus norvegicus [1]) [µM/kg]	Selectivity ratio [2]	ED35 (Rattus norvegicus [3]) [µM/kg]	ED10 (Rattus norvegicus [4]) [µM/kg]
CCc1cc(C#N)ccc1Nc1c(N[C@H](C)C(C)(C)C)c(=O)c1=O	0.12	1.2	0.1	–
CC(=O)Nc1c(C(O)(C(F)(F)F)C(F)(F)F)ccc2ccccc12	–	1.7	0.03	0.05
C[C@](O)(C(=O)Nc1ccc(C(=O)c2ccccc2)cc1)C(F)(F)F [ZD-6169]	1.5	1.1	1.4	–
